The target in test [1] is Cyclin-dependent kinase 4/G1/S-specific cyclin-D1 (Homo sapiens, UniProt P11802). The test can be described thus: Kinase Inhibition Assay.
Procedure: (§1) The enzyme was assayed with substrate GST-Rb in the presence of 50 mM ATP/[gamma-32P] ATP, and capturing the 32-P labeled reaction products on GSH-Sepharose beads. […] Use of 32P-labeled ATP allows this transfer to be monitored by scintillation counting.
For test [2], the target named is Cyclin-dependent kinase 2/G1/S-specific cyclin-E1 (Homo sapiens, UniProt P24941). Nature of the test: Kinase Inhibition Assay.
Procedure: as §1

Molecules are shown by their SMILES.

Cyclin-dependent kinase 4/G1/S-specific cyclin-D1, sequence (P11802 whole entry): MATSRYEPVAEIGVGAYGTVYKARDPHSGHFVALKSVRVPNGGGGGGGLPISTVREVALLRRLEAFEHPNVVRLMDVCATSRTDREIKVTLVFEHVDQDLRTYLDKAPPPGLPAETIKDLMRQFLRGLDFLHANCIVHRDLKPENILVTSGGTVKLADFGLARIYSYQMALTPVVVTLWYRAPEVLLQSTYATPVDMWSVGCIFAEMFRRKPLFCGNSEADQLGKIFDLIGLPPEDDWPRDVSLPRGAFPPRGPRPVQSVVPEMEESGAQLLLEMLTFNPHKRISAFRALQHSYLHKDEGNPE
Cyclin-dependent kinase 4/G1/S-specific cyclin-D1, sequence (P24385 whole entry, further chain): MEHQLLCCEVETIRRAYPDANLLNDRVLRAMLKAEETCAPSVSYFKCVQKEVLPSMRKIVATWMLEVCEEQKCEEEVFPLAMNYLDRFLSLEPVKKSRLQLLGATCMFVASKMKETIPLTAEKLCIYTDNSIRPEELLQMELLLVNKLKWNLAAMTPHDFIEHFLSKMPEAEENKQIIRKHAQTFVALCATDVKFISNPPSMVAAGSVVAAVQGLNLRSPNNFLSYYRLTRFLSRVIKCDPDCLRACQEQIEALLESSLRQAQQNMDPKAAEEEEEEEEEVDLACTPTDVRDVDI

For the compound `COc1ccc(-c2[nH]nc3c2C(=O)c2c(NC(=O)NNC(=O)c4ccc(O)cc4O)cccc2-3)cc1` [2,4-dihydroxy-N-({[3-(4-methoxyphenyl)-4-oxo-2H,4H-indeno[1,2-c]pyrazol-5-yl]carbamoyl}amino)benzamide], the IC50 in test [1] turned out to be 12 nM; in test [2] it was 16 nM.

As for `COc1ccc(-c2[nH]nc3c2C(=O)c2c(NC(=O)NNC(=O)c4cc(Cl)ccc4Cl)cccc2-3)cc1` [2,5-dichloro-N-({[3-(4-methoxyphenyl)-4-oxo-2H,4H-indeno[1,2-c]pyrazol-5-yl]carbamoyl}amino)benzamide], the 50% inhibitory concentration (IC50) amounted to 28 nM in test [1] and 36 nM in test [2] (pH 7.6, 22 °C). Consider `COc1ccc(-c2[nH]nc3c2C(=O)c2c(NC(=O)NNC(=O)c4ccccc4OC)cccc2-3)cc1` [2-methoxy-N-({[3-(4-methoxyphenyl)-4-oxo-2H,4H-indeno[1,2-c]pyrazol-5-yl]carbamoyl}amino)benzamide], for which the IC50 in test [2] (pH 7.6, 22 °C) stood at 14 nM. Regarding `COc1ccc(-c2[nH]nc3c2C(=O)c2c(NC(=O)NNC(=O)c4cc(N)cc(N)c4)cccc2-3)cc1` [3,5-diamino-N-({[3-(4-methoxyphenyl)-4-oxo-2H,4H-indeno[1,2-c]pyrazol-5-yl]carbamoyl}amino)benzamide], the IC50 turned out to be 16 nM in test [1] and 39 nM in test [2] (pH 7.6, 22 °C).

Regarding `COc1ccc(-c2[nH]nc3c2C(=O)c2c(NC(=O)NNC(=O)c4cc(OC)cc(OC)c4)cccc2-3)cc1` [3,5-dimethoxy-N-({[3-(4-methoxyphenyl)-4-oxo-2H,4H-indeno[1,2-c]pyrazol-5-yl]carbamoyl}amino)benzamide], half-maximal inhibition in test [1] (IC50) was put at 24 nM. This counts as double-digit nanomolar.

Consider `COc1ccc(-c2[nH]nc3c2C(=O)c2c(NC(=O)NNC(=O)CCc4ccc(O)cc4)cccc2-3)cc1` [3-(4-hydroxyphenyl)-N-({[3-(4-methoxyphenyl)-4-oxo-2H,4H-indeno[1,2-c]pyrazol-5-yl]carbamoyl}amino)propanamide], for which, in test [2] (pH 7.6, 22 °C), the IC50 was 13 nM. On the same count and under the same terms, to `COc1ccc(-c2[nH]nc3c2C(=O)c2c(NC(=O)NNC(=O)Nc4ccccc4)cccc2-3)cc1` [3-[3-(4-methoxyphenyl)-4-oxo-2H,4H-indeno[1,2-c]pyrazol-5-yl]-1-[(phenylcarbamoyl)amino]urea] belongs 19 nM; to `COc1ccc(-c2[nH]nc3c2C(=O)c2c(NC(=O)NNC(=O)c4ccc(O)c(N)c4)cccc2-3)cc1` [3-amino-4-hydroxy-N-({[3-(4-methoxyphenyl)-4-oxo-2H,4H-indeno[1,2-c]pyrazol-5-yl]carbamoyl}amino)benzamide], 24 nM. `COc1ccc(-c2[nH]nc3c2C(=O)c2c(NC(=O)NNC(=O)c4cccc(N)c4)cccc2-3)cc1` [3-amino-N-({[3-(4-methoxyphenyl)-4-oxo-2H,4H-indeno[1,2-c]pyrazol-5-yl]carbamoyl}amino)benzamide] registered an IC50 in test [2] of 13 nM. Regarding `COc1ccc(C(=O)NNC(=O)Nc2cccc3c2C(=O)c2c(-c4ccc(OC)cc4)n[nH]c2-3)cc1` [4-methoxy-N-({[3-(4-methoxyphenyl)-4-oxo-2H,4H-indeno[1,2-c]pyrazol-5-yl]carbamoyl}amino)benzamide], the IC50 amounted to 11 nM in test [1] and 15 nM in test [2] (pH 7.6, 22 °C).

Compound `COc1ccc(-c2[nH]nc3c2C(=O)c2c(NC(=O)NNC(=O)C(C)C)cccc2-3)cc1` [N-({[3-(4-methoxyphenyl)-4-oxo-2H,4H-indeno[1,2-c]pyrazol-5-yl]carbamoyl}amino)-2-methylpropanamide] displayed an IC50 in test [2] (pH 7.6, 22 °C) of 19 nM. Take `COc1ccc(-c2[nH]nc3c2C(=O)c2c(NC(=O)NNC(=O)Cc4ccccc4)cccc2-3)cc1` [N-({[3-(4-methoxyphenyl)-4-oxo-2H,4H-indeno[1,2-c]pyrazol-5-yl]carbamoyl}amino)-2-phenylacetamide]: the IC50 was found to be 27 nM in test [1] and 33 nM in test [2]. On to `COc1ccc(-c2[nH]nc3c2C(=O)c2c(NC(=O)NNC(=O)c4cccc(C)c4)cccc2-3)cc1` [N-({[3-(4-methoxyphenyl)-4-oxo-2H,4H-indeno[1,2-c]pyrazol-5-yl]carbamoyl}amino)-3-methylbenzamide], for which, in test [2] (pH 7.6, 22 °C), inhibition was half-maximal at 13 nM (IC50). In other words, the double-digit nanomolar range. On to `COc1ccc(-c2[nH]nc3c2C(=O)c2c(NC(=O)NNC(=O)c4cccc([N+](=O)[O-])c4)cccc2-3)cc1` [N-({[3-(4-methoxyphenyl)-4-oxo-2H,4H-indeno[1,2-c]pyrazol-5-yl]carbamoyl}amino)-3-nitrobenzamide], for which the IC50 in test [2] (pH 7.6, 22 °C) was found to be 24 nM. On to `COc1ccc(-c2[nH]nc3c2C(=O)c2c(NC(=O)NNC(=O)c4ccc(C)cc4)cccc2-3)cc1` [N-({[3-(4-methoxyphenyl)-4-oxo-2H,4H-indeno[1,2-c]pyrazol-5-yl]carbamoyl}amino)-4-methylbenzamide], for which the IC50 in test [2] (pH 7.6, 22 °C) came out at 24 nM. This counts as double-digit nanomolar.

With `COc1ccc(-c2[nH]nc3c2C(=O)c2c(NC(=O)NNC(C)=O)cccc2-3)cc1` [N-({[3-(4-methoxyphenyl)-4-oxo-2H,4H-indeno[1,2-c]pyrazol-5-yl]carbamoyl}amino)acetamide], the IC50 in test [1] worked out at 57 nM; in test [2], 37 nM. Compound `COc1ccc(-c2[nH]nc3c2C(=O)c2c(NC(=O)NNC(=O)c4ccccc4)cccc2-3)cc1` [N-({[3-(4-methoxyphenyl)-4-oxo-2H,4H-indeno[1,2-c]pyrazol-5-yl]carbamoyl}amino)benzamide] returned an IC50 in test [2] of 12 nM. In test [2], `COc1ccc(-c2[nH]nc3c2C(=O)c2c(NC(=O)NNC(=O)C(N)=O)cccc2-3)cc1` [N-({[3-(4-methoxyphenyl)-4-oxo-2H,4H-indeno[1,2-c]pyrazol-5-yl]carbamoyl}amino)ethanediamide] yielded an IC50 of 97 nM. In turn, `COc1ccc(-c2[nH]nc3c2C(=O)c2c(NC(=O)NNC(=O)c4cccc5ccccc45)cccc2-3)cc1` [N-({[3-(4-methoxyphenyl)-4-oxo-2H,4H-indeno[1,2-c]pyrazol-5-yl]carbamoyl}amino)naphthalene-1-carboxamide] displayed an IC50 in test [2] (pH 7.6, 22 °C) of 53 nM. `COc1ccc(-c2[nH]nc3c2C(=O)c2c(NC(=O)NNC(=O)c4ccc5ccccc5c4)cccc2-3)cc1` [N-({[3-(4-methoxyphenyl)-4-oxo-2H,4H-indeno[1,2-c]pyrazol-5-yl]carbamoyl}amino)naphthalene-2-carboxamide]: the IC50 stood at 13 nM in test [1] and 35 nM in test [2]. For `COc1ccc(-c2[nH]nc3c2C(=O)c2c(NC(=O)NNC(=O)c4cccnc4)cccc2-3)cc1` [N-({[3-(4-methoxyphenyl)-4-oxo-2H,4H-indeno[1,2-c]pyrazol-5-yl]carbamoyl}amino)pyridine-3-carboxamide], the IC50 in test [2] was determined as 16 nM.

In test [2], `COc1ccc(-c2[nH]nc3c2C(=O)c2c(NC(=O)NNC(=O)c4ccncc4)cccc2-3)cc1` [N-({[3-(4-methoxyphenyl)-4-oxo-2H,4H-indeno[1,2-c]pyrazol-5-yl]carbamoyl}amino)pyridine-4-carboxamide] displayed an IC50 of 12 nM. This IC50 and that of the compound before are within 1.5-fold of each other. In the case of `COC(=O)NNC(=O)Nc1cccc2c1C(=O)c1c-2n[nH]c1-c1ccc(OC)cc1` [methoxy-N-({[3-(4-methoxyphenyl)-4-oxo-2H,4H-indeno[1,2-c]pyrazol-5-yl]carbamoyl}amino)formamide], the IC50 in test [2] (pH 7.6, 22 °C) came to 16 nM.

By IC50 is commonly meant the concentration that gives 50% inhibition. Lower therefore signals higher potency.

The values above are taken from BindingDB's records for doi:10.1016/j.bmcl.2004.09.023 (Dupont Pharmaceuticals, 2004).
